Measurements reported in patent US20230330019A1, “EMULSION FORMULATIONS OF POORLY WATER-SOLUBLE COMPOUNDS” (priority 2022, published 2023).
In brackets after ≈: the same amount, converted by molar mass. Where two headings read alike, the source gives them in different places.

Experiments:
[1] = cited from earlier work
[2] = cited from earlier work; remark: listed apart in the source
[3] = Solubility screening panel in DEGEE; format: physicochemical
Source text: Fisetin, trans-resveratrol, and milk thistle extract (comprising silymarin) were all found to be soluble in DEGEE in a solubility screening panel evaluating surfactants and other emulsifiers for use in topical delivery. An initial objective was to find a suitable miscible oil for use in hair applications, such as argan, sesame, sunflower, fractionated coconut, and grape seed oils. […] The next step was to evaluate oil soluble emulsifiers, such as glyceryl oleate, sorbitan oleate, lauryl oleate, and lauryl sulfate. […] Oleic acid (a fatty acid) is known to be miscible with DEGEE, but it is a […] fatty acid, which makes it an unfavorable choice for use in a long-term topical dosing formulation. Oleic acid was evaluated with a mixture of sorbitan laurate, polyglyceryl-4 laurate, and dilauryl citrate. This formulation made a miscible mixture with fisetin, trans-resveratrol, and milk thistle dissolved in DEGEE. However, the dilution of the mixture with water created a suspension, and once again, the solids precipitated out after approximately one hour.

[4] = Water solubility of exemplified compounds, USP solubility definition; format: physicochemical
Source text: “Solubility” generally refers to the degree to which a substance dissolves in a solvent to make a solution (usually expressed as grams of solute per liter of solvent). Solubility of one fluid (liquid or gas) in another may be complete (totally miscible; e.g., methanol and water) or partial (e.g., oil and water dissolve only slightly). In general, “like dissolves like” (e.g., aromatic hydrocarbons dissolve in each other but not in water). Solubility is the ability of a solid, liquid, or gaseous chemical substance (referred to as the solute) to dissolve in a solvent (usually a liquid) and form a solution. The solubility of a substance depends on the types of solvent used, their polarity, and the temperature and pressure to which they are subjected. The solubility of a substance in a particular solvent is measured by the concentration of the saturated solution. A solution is considered saturated when adding additional solute no longer increases the concentration of the solution. The degree of solubility ranges widely depending on the substances, from infinitely soluble (fully miscible), such as ethanol in water, to poorly soluble, such as silver chloride in water. The term “insoluble” is often applied to poorly soluble compounds. Under certain conditions, the equilibrium solubility can be exceeded, yielding a supersaturated solution.
“Poorly water-soluble chemical compounds”: The United States Pharmacopeia (USP) designates the solubility of drugs as parts of solvent required for one part solute. […] The USP lists the solubility of a drug as the quantity of milliliters of solvent in which 1 g of solute will dissolve and assigns a descriptive term in the summary provided below.

[5] = cited from earlier work; remark: listed apart in the source
[6] = cited from earlier work; remark: listed apart in the source
[7] = molecular target: T1, Janus kinase 3 (JAK3) (Homo sapiens, UniProt P52333); details: cited from earlier work
T1 sequence (P52333 1-1124): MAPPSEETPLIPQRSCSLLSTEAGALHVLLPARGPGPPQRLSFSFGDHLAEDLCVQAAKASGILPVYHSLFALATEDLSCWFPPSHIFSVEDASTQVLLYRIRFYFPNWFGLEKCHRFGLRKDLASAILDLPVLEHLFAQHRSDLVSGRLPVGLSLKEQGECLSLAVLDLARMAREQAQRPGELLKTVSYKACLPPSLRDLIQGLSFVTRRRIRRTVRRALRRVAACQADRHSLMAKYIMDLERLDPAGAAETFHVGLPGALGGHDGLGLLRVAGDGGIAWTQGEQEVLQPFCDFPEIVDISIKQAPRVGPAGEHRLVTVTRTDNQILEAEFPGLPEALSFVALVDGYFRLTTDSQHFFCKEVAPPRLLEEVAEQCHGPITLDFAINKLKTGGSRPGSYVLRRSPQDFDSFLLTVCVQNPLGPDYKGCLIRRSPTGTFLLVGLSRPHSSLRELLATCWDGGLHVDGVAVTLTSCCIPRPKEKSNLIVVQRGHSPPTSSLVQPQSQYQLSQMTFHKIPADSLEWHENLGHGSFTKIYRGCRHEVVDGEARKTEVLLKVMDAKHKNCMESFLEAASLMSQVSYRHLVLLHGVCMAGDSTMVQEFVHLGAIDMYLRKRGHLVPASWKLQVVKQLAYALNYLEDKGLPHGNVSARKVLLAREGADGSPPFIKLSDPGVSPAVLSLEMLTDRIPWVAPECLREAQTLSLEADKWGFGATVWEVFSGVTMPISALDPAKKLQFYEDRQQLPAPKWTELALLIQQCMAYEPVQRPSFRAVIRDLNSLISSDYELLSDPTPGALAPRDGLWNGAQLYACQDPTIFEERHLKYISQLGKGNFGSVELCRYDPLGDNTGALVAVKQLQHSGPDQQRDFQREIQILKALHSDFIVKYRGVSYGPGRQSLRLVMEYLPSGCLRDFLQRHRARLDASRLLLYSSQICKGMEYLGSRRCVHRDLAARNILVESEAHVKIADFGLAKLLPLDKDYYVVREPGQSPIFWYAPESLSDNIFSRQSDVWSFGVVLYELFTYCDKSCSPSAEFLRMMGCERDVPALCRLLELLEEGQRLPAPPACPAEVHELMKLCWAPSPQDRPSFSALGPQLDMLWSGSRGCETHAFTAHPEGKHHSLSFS

Compound | Definition (USP solubility descriptive term) ([4]; water) | mass_water/mass_solute ([4]; water) | reported aqueous solubility [2] | solubility in DEGEE [3] | Water Solubility [2] | other results
O=C(O[C@@H]1Cc2c(O)cc(O)cc2O[C@@H]1c1cc(O)c(O)c(O)c1)c1cc(O)c(O)c(O)c1 [EGCG, [(2R,3R)-5,7-dihydroxy-2-(3,4,5-trihydroxyphenyl)chroman-3-yl]3,4,5-trihydroxybenzoate] |  |  |  |  |  | time at which blood levels peak ([1]; after consumption (oral)): ≤ 1.7 h; time by which majority of unchanged EGCG is excreted into the urine ([1]; from almost immediately): ≤ 8 h; absorbed plasma half-life ([1]; oral): about 5 hours
Silymarin |  |  |  |  |  | Definition (USP solubility descriptive term) [4]: very slightly insoluble; mass_water/mass_solute [4]: 2,500
O=c1c(O)c(-c2ccc(O)c(O)c2)oc2cc(O)ccc12 [Fisetin, 2-(3,4-dihydroxyphenyl)-3,7-dihydroxy-4H-1-benzopyran-4-one] | practically insoluble | 100,000 | about 0.01 mg/mL | soluble | 0.01 mg/mL | aqueous solubility ([2]; literature): 10.45 µg/mL (≈ 36.5 µM); log P [6]: 3.2
C/C=C(/C)C(=O)O[C@H]1[C@@H]2[C@H](C)C(=O)O[C@@H]2C[C@@H](C)[C@@H]2C=CC(=O)[C@]21C [Brevilin A] |  |  |  |  |  | inhibition of JAK3 [7]: inhibit

More lines, main results first:

Definition (USP solubility descriptive term) ([4]; water) | mass_water/mass_solute ([4]; water) | Compound | reported aqueous solubility [2] | solubility in DEGEE [3] | Water Solubility [2] | other results
practically insoluble | 33,333 | Oc1ccc(/C=C/c2cc(O)cc(O)c2)cc1 [trans-Resveratrol, 5-[(E)-2-(4-hydroxyphenyl)ethen-1-yl]benzene-1,3-diol] | about 0.03 mg/mL | soluble |  | half-life ([5]; in vivo): about 15 min; bioavailability ([5]; oral): about 0.5%
very slightly insoluble | 2,500 | O=C1c2c(O)cc(O)cc2O[C@H](c2ccc(O)c(O)c2)[C@H]1O [Dihydroquercetin] |  |  | 0.4 mg/mL | 
